{"source": "patent US20080051393A1", "about": "“Novel cannabinoids and methods of use” (Eastern Virginia Medical School, priority 2006, published 2008)", "key": {"Rat NMDA Model": {"tested_on": "Rat NMDA Model", "assay": "Rat NMDA model: electroretinogram a-wave", "type": "in vivo", "details": "for Effect of CB1 antagonist SR-141716 on the action of the drug (ERG a-wave): drug 0.1% + SR-141716 2 mM", "description": "(§1) Rat NMDA Model. To mimic glaucomatous damage to the retina without a potentially confounding effect on IOP, retinal damage was induced by NMDA in a rat model. Following baseline measurements, e.g. IOP, ERG, slit lamp, fundus photography, heart rate and blood pressure, N-methyl D-aspartate (NMDA, 2 μl of 10 mM) was injected intravitreally to induce RGC damage. […] For positive identification, a hand scanner was used each time the rat was examined. This was necessary since the examiners will be masked as to treatment group. Treatment groups consisted of either NMDA only (control), O-1812 (0.1%) or O-2545 (0.1%), O-1812 (0.1%)+SR-141716 (2 mM), O-2545 (0.1%)+SR-141716 (2 mM), O-1812 (0.1%)+SR-144258 (2 mM) and O-2545 (0.1%)+SR-144258 (2 mM). All experiments were conducted in accordance with the policies of the Institutional Animal Care and Use Committee and the ARVO policy on use of animals in experiments. A minimum of two baseline ERG measurements was recorded 1 wk prior, 1 wk and 2 wk post injection. At the end of each experiment, rats were sacrificed and their eyes were preserved for histological assessment of effects on the retina and optic nerve.\nElectroretinogram. In normal retina, full field electroretinography (ERG) stimulates both rods (a-waves) and cones (b-waves). A decrease in their amplitudes indicates retinal functional damage. Scotopic ERG changes were measured in rats that were dark-adapted for at least 4 hours. Eyes were then dilated with 1% atropine after which 0.5% proparacaine and methylcellulose gel (GPS 2.5%) was applied topically. Custom made AgCl electrodes were placed on the apex of the cornea. Stimuli consisted of 10-μsec flashes of unattenuated white light generated by a Ganzfeld bowl photo stimulator. Data from each eye were recorded separately with a driver amplifier and acquired digitally via DASYLab. The contralateral normal eye served as an age matched negative control, e.g. response in a normal, undamaged eye. Differences in amplitude of the a- and b-waves between the operated eye and the contralateral eye were calculated and analyzed by ANOVA and t-test."}, "[1]": {"tested_on": "IOP in a rat glaucoma model", "assay": "IOP after topical application in chronic rat glaucoma model", "type": "in vivo, Sprague-Dawley rats", "details": "for Effect on IOP compared to baseline or vehicle: all concentrations tested", "excerpt": "(§2) Rat Glaucoma Model. Compared to acute studies, a chronic rat model of glaucoma was generated. The rats were made glaucomatous by ligating three vortex veins (Hosseini, A. et al. (2006) Chronic topical administration of WIN-55-212-2 maintinas a reduction in IOP in a rat glaucoma model without adverse effects. Exp. Eye Res. 82(5):753-9). More specifically, ocular hypertension was induced in Sprague-Dawley rats by ligating 3 of 4 episcleral veins of the right eye using 9.0 nylon sutures under anesthesia with 3 mg/Kg acepromazine and 20 mg/Kg ketamine. Within 6 wk, IOP increased by at least 5 mm Hg in the operated eye. This intervention produced at least a 30% increase in IOP in the operated eye and lasted for up to 60 weeks. During this time, a 30% loss of retinal function was documented by ERG. […] Thus, the model accurately mimics the progressive damage that occurs in patients with glaucoma.\n(§3) Measurements of Intraocular Pressure. IOP elevation was measured under mild sedation using a calibrated Goldmann tonometer modified for rats. Three determinations were averaged for each eye. To account for diurnal variation, all IOP's were measured between 11 am and 1 pm during the daily trough period.\nTherapeutic Regimen. For IOP Measurements (Topical application) Baseline IOP, heart rate, blood pressure and normal ocular anatomy were documented prior to drug administration. The drugs WIN 55-212-2 (0.1%, 1.0%), O-1812 (0.01%, 0.1%, 1.0%), O-2545 (0.1%, 1.0%) were all dissolved in Tocrisolve™ (vehicle). IOP, heart rate, and blood pressure were measured prior to and after 30, 60 and 120 min after topical administration. Contralateral eyes served as vehicle treated controls."}, "optic nerve": {"tested_on": "optic nerve", "assay": "Rat NMDA model: optic nerve histology", "type": "in vivo", "description": "as §1\nHistology. For retinal flat mounts, retinas were dissected from formalin fixed whole eyes, mounted on superfrost glass slides, stained with hematoxylin and eosin and digitally photographed. […]"}, "[2]": {"assay": "Ocular toxicity by slit lamp, MacDonald-Shadduck scoring", "type": "in vivo, rats", "details": "topical", "description": "Slit Lamp Biomicroscopy/Digital Photography. Ocular toxicity was measured using slit lamp examination and performed using a modified MacDonald-Shadduck semi-quantitative scale for ocular irritation (McDonald, T. O. and Shadduck, J. A. (1987) Eye irriation. In Dermatotoxicology. 3rd Ed. Mazulli and Maibach. Pp 641-696. Washington, DC: Hemisphere). All eyes were examined by a slit lamp fitted with a color digital camera for digital photography of conjunctiva, cornea, and anterior camber. Images were stored and analyzed using a digital video system (Lombart Instruments DVS System). At baseline and following drug administration, eyes were examined for conjunctival congestion, conjunctival discharge, corneal edema, aqueous flare, fibrin, and iris congestion (Samudre, S. S. et al. (2004) Comparison of Topical Steroids for Acute Anterior Uveitis. J. Ocul. Pharmacol. Ther. 20 (6):533-547). Knowledgeable, masked observers rated each factor on a semi-quantitative four point scale where zero was coded normal, 1=minimal, 2=moderate and 3=severe involvement. Results were compared to the normal baseline evaluation performed before treatment and also with the untreated contralateral eye."}, "[3]": {"tested_on": "IOP in a rat glaucoma model", "assay": "Combination therapy: IOP in a rat glaucoma model", "type": "in vivo, Sprague Dawley rats", "details": "1.0% topical alone, 120 min", "excerpt": "as §2, §3\nCombination Therapy. Since cannabinoids and timolol, which are both known to reduce IOP, have different mechanisms of action, there is potential for a synergistic effect. The combination of timolol and a synthetic cannabinoid (WIN55 212-2, O-1812, or O-2545) to reduce IOP in a chronic rat model of ocular hypertension was examined. Surgical ligation of three of the four episcleral veins in one eye of Sprague Dawley rats caused a long lasting (>44 week) increase in IOP. IOP was measured by Goldmann tonometry at baseline (−30), 0, 30, 60 and 120 min, as was heart rate and blood pressure. For combination therapy, after baseline IOP measurement, timolol 0.5% was applied topically followed 30 min later by WIN55 212-2 1.0%, O-1812 1.0%, or O-2545 1.0%. In another experiment, O-1812 1.0% and O-2545 1.0% were administered simultaneously. An analysis for ocular irritation was performed by slit lamp examination (SLE) at baseline and 150 min."}, "[4]": {"tested_on": "retinal ganglionic cells (RGC)", "assay": "Rat NMDA model: retinal flat mounts, RGC count", "type": "in vivo", "details": "NMDA model, retinal flat mounts", "description": "as §1\nHistology. For retinal flat mounts, retinas were dissected from formalin fixed whole eyes, mounted on superfrost glass slides, stained with hematoxylin and eosin and digitally photographed. For analysis, the retina was divided into four quadrants. A minimum of five 50 μm^2 sections per quadrant were used to count cell number. The cell sections were selected to be equidistant from the optic cup for all quadrants. For optic nerve experiments, the optic nerve was dissected at the margin of the optic disk and embedded in cryo media. Sections of 10 μm thickness were cut and mounted on superfrost glass slides and stained with hematoxylin and eosin. The slides were digitally photographed."}, "[5]": {"assay": "Corneal thickness by in vivo confocal microscopy", "parameters": "species or system rats", "details": "1.0% treated eye (OD) vs contralateral control (OS)", "description": "Confocal Microscopy. Repeated noninvasive in vivo visualization of cornea and anterior segments for the presence, location and number of inflammatory cells, as well as fibrin, hyper-refractile bodies and changes in epithelial, stromal and endothelial cell morphology was performed by confocal microscopy. Prior to applanation, rats were sedated and 0.5% proparacaine was applied topically. Data was analyzed using the Metamorph imaging system (Universal Imaging, Downingtown, Pa.)."}, "[6]": {"tested_on": "peripheral retinal ganglion cell", "details": "cited from earlier work"}}, "note": "Entries after “also recorded” stand apart in the source; their conditions may differ.", "data": [{"compound": "C[C@H](CO)NC(=O)CCC/C=C\\C/C=C\\C/C=C\\C/C=C\\C(C)(C)CCCCC#N", "note": "[Compound O-1812]", "values": [{"measurement": "Retinal function, A-wave ERG (percentage of the contralateral normal eye)", "setting": "Rat NMDA Model; NMDA intravitreal, drug 0.1%", "value": "more effectively preserved retinal function"}, {"measurement": "Effect of CB1 antagonist SR-141716 on the action of the drug (ERG a-wave)", "setting": "Rat NMDA Model", "value": "effectively blocked"}, {"measurement": "Effect of CB2 antagonist SR-144258 on the action of the drug (ERG a-wave)", "setting": "Rat NMDA Model; drug 0.1% + SR-144258 2 mM", "value": "no effect"}, {"measurement": "Effect on IOP", "setting": "[1]; 0.01% topical", "value": "significantly reduced IOP"}, {"measurement": "Time for which the IOP decrease was maintained", "setting": "[1]; 0.01% topical", "value": "≤ 60", "unit": "min"}, {"measurement": "IOP after 60 min (% of Baseline)", "setting": "[1]; 0.01% topical, 60 min", "value": "81.9 ± 2.7 % of Baseline"}, {"measurement": "IOP after 60 min (% of Baseline)", "setting": "[1]; 0.10% topical, 60 min", "value": "78.3 ± 3.1 % of Baseline"}, {"measurement": "Relative efficacy in IOP reduction", "setting": "[1]; 1.0% topical", "value": "most efficacious"}, {"measurement": "IOP after 60 min (% of Baseline)", "setting": "[1]; 1.0% topical, 60 min", "value": "61.9 ± 3.9 % of Baseline"}, {"measurement": "Onset of IOP lowering action", "setting": "[1]; topical", "value": "most rapid onset"}, {"measurement": "Effect on IOP compared to baseline or vehicle", "setting": "[1]; topical", "value": "effective; also recorded: significantly reduced IOP"}, {"measurement": "Protection of optic nerve against NMDA induced damage", "setting": "optic nerve", "value": "prevented much of the NMDA induced damage"}, {"measurement": "Ocular toxicity / signs of ocular inflammation", "setting": "[2]", "value": "non-toxic"}, {"measurement": "IOP at 120 min (% Baseline)", "setting": "[3]", "value": "62.0 ± 0.5", "unit": "% Baseline"}, {"measurement": "Preservation of the number of RGCs", "setting": "[4]", "value": "preserved the number of RGCs"}, {"measurement": "RGCs preserved", "setting": "[4]", "value": "up to 83%"}]}, {"compound": "CC1=CC[C@@H]2[C@@H](C1)c1c(O)cc(C(C)(C)CCCCn3ccnc3)cc1OC2(C)C", "note": "[Compound O-2545]", "values": [{"measurement": "Effect of CB1 antagonist SR-141716 on the action of the drug (ERG a-wave)", "setting": "Rat NMDA Model", "value": "effectively blocked"}, {"measurement": "Time for which significant IOP reduction was maintained", "setting": "[1]; 0.1% topical", "value": "up to 120 min"}, {"measurement": "Effect on IOP at 30 min", "setting": "[1]; 0.1% topical", "value": "significantly reduced IOP"}, {"measurement": "IOP after 60 min (% of Baseline)", "setting": "[1]; 0.10% topical, 60 min", "value": "77.8 ± 2.8 % of Baseline"}, {"measurement": "Time for which significant IOP reduction was maintained", "setting": "[1]; 1.0% topical", "value": "up to 120 min"}, {"measurement": "Effect on IOP at 30 min", "setting": "[1]; 1.0% topical", "value": "significantly reduced IOP"}, {"measurement": "IOP after 60 min (% of Baseline)", "setting": "[1]; 1.0% topical, 60 min", "value": "76.4 ± 2.8 % of Baseline"}, {"measurement": "Duration of IOP lowering action", "setting": "[1]; topical", "value": "longest duration of action"}, {"measurement": "Protection of optic nerve against NMDA induced damage", "setting": "optic nerve", "value": "prevented much of the NMDA induced damage"}, {"measurement": "IOP at 120 min (% Baseline)", "setting": "[3]", "value": "65.5 ± 0.8", "unit": "% Baseline"}, {"measurement": "Preservation of the number of RGCs", "setting": "[4]", "value": "preserved the number of RGCs"}]}, {"compound": "Cc1c(C(=O)c2cccc3ccccc23)c2cccc3c2n1[C@H](CN1CCOCC1)CO3", "note": "[WIN 55-212-2, reference compound]", "values": [{"measurement": "IOP after 60 min (% of Baseline)", "setting": "[1]; 0.01% topical, 60 min", "value": "83.1 ± 5.5 % of Baseline"}, {"measurement": "Effect on IOP compared to vehicle or baseline", "setting": "[1]; 0.1% topical", "value": "not significantly different from either vehicle or baseline"}, {"measurement": "Time for which significant IOP reduction was maintained", "setting": "[1]; 1.0% topical", "value": "up to 120 min"}, {"measurement": "Effect on IOP at 30 min", "setting": "[1]; 1.0% topical", "value": "significantly reduced IOP"}, {"measurement": "Effect on IOP at 60 min", "setting": "[1]; 1.0% topical, 60 min", "value": "significantly reduced"}, {"measurement": "IOP after 60 min (% of Baseline)", "setting": "[1]; 1.0% topical, 60 min", "value": "58.3 ± 5.6 % of Baseline"}, {"measurement": "Effect on IOP compared to baseline or vehicle", "setting": "[1]; topical", "value": "effective"}, {"measurement": "Ocular toxicity / signs of ocular inflammation", "setting": "[2]", "value": "non-toxic"}, {"measurement": "IOP at 120 min (% Baseline)", "setting": "[3]", "value": "48.8 ± 2.8", "unit": "% Baseline"}, {"measurement": "Corneal thickness", "setting": "[5]", "value": "remained unchanged"}]}, {"compound": "N=C(N)NN", "note": "[aminoguanidine]", "values": [{"measurement": "Less peripheral retinal ganglion cell loss compared to untreated rats", "setting": "[6]", "value": 26, "unit": "%"}]}]}
